Experimental data taken from article PMC10819888, “Benzimidazole-Based Derivatives as Apoptotic Antiproliferative Agents: Design, Synthesis, Docking, and Mechanistic Studies” (Molecules, 2024).

How the values were obtained:
Experiment in all cases: NCI-60 one-dose assay
Type in all cases: cell-based
786-0 = conditions: Homo sapiens, 786-0 (Renal Cancer), read-out: Cell Inhibition Percent
Procedure: (§1) The final compounds were submitted to the National Cancer Institute, Bethesda, USA, for screening in vitro for anti-cancer. […] compounds, 4a–j, 5, and 6, were selected according to the Development Therapeutic Program (DTP) protocol. The selected compounds were evaluated for their in vitro cytotoxic activity against a panel of sixty cancer cell lines (NCI-60 cell line panel) derived from six cell lines panel of leukemia, nine cell lines of lung cancer, six cell lines of CNS cancer, seven cell lines of colon cancer, eight cell lines of melanoma, six cell lines of ovarian cancer, eight cell lines of renal cancer, two cell lines of prostate cancer, and eight cell lines of breast cancer, representing the full nine human systems as leukemia, melanoma, and cancers of the lung, colon, brain, breast, ovary, kidney, and prostate.
(§2) The selected compounds 4a–j, 5, and 6 were tested at a single concentration of 10 µM. The screening results for the selected compounds are illustrated in Table 1.
(§3) The NCI anti-cancer screening methodology has been described in detail elsewhere (http://www.dtp.nci.nih.gov, accessed on 20 February 2021). Following the Drug Evaluation Branch protocol, National Cancer Institute, Bethesda, USA, a primary anti-cancer assay was performed on approximately 60 human tumor cell line panels derived from nine neoplastic diseases.

ACHN = conditions: Homo sapiens, ACHN (Renal Cancer), read-out: Cell Inhibition Percent
Procedure: as §1, §2, §3

BT-549 = conditions: Homo sapiens, BT-549 (Breast Cancer), read-out: Cell Inhibition Percent
Procedure: as §1, §2, §3

CAKI-1 = conditions: Homo sapiens, CAKI-1 (Renal Cancer), read-out: Cell Inhibition Percent
Procedure: as §1, §2, §3

CCRF-CEM = conditions: Homo sapiens, CCRF-CEM (Leukemia), read-out: Cell Inhibition Percent
Procedure: as §1, §2, §3

DU-145 = conditions: Homo sapiens, DU-145 (Prostate Cancer), read-out: Cell Inhibition Percent
Procedure: as §1, §2, §3

HCC-2998 = conditions: Homo sapiens, HCC-2998 (Colon Cancer), read-out: Cell Inhibition Percent
Procedure: as §1, §2, §3

HOP-62 = conditions: Homo sapiens, HOP-62 (Non-Small Cell Lung Cancer), read-out: Cell Inhibition Percent
Procedure: as §1, §2, §3

HOP-92 = conditions: Homo sapiens, HOP-92 (Non-Small Cell Lung Cancer), read-out: Cell Inhibition Percent
Procedure: as §1, §2, §3

HS 578T = conditions: Homo sapiens, HS 578T (Breast Cancer), read-out: Cell Inhibition Percent
Procedure: as §1, §2, §3

HT29 = conditions: Homo sapiens, HT-29, HT29 (Colon Cancer), read-out: Cell Inhibition Percent
Procedure: as §1, §2, §3

K-562 = conditions: Homo sapiens, K562, K-562 (Leukemia), read-out: Cell Inhibition Percent
Procedure: as §1, §2, §3

KM12 = conditions: Homo sapiens, KM12 (Colon Cancer), read-out: Cell Inhibition Percent
Procedure: as §1, §2, §3

MDA-MB-468 = conditions: Homo sapiens, MDA-MB-468 (Breast Cancer), read-out: Cell Inhibition Percent
Procedure: as §1, §2, §3

MOLT-4 = conditions: Homo sapiens, MOLT-4 (Leukemia), read-out: Cell Inhibition Percent
Procedure: as §1, §2, §3

NCI-H226 = conditions: Homo sapiens, NCI-H226 (Non-Small Cell Lung Cancer), read-out: Cell Inhibition Percent
Procedure: as §1, §2, §3

NCI-H460 = conditions: Homo sapiens, NCI-H460 (Non-Small Cell Lung Cancer), read-out: Cell Inhibition Percent
Procedure: as §1, §2, §3

NCI-H522 = conditions: Homo sapiens, NCI-H522 (Non-Small Cell Lung Cancer), read-out: Cell Inhibition Percent
Procedure: as §1, §2, §3

NCI/ADR-RES = conditions: Homo sapiens, NCI/ADR-RES (ovarian cancer), read-out: Cell Inhibition Percent
Procedure: as §1, §2, §3

OVCAR-4 = conditions: Homo sapiens, OVCAR-4 (ovarian cancer), read-out: Cell Inhibition Percent
Procedure: as §1, §2, §3

SF-268 = conditions: Homo sapiens, SF-268 (CNS cancer), read-out: Cell Inhibition Percent
Procedure: as §1, §2, §3

SF-539 = conditions: Homo sapiens, SF-539 (CNS cancer), read-out: Cell Inhibition Percent
Procedure: as §1, §2, §3

SK-MEL-28 = conditions: Homo sapiens, SK-MEL-28 (Melanoma), read-out: Cell Inhibition Percent
Procedure: as §1, §2, §3

SK-OV-3 = conditions: Homo sapiens, SK-OV-3 (ovarian cancer), read-out: Cell Inhibition Percent
Procedure: as §1, §2, §3

SN12C = conditions: Homo sapiens, SN12C (Renal Cancer), read-out: Cell Inhibition Percent
Procedure: as §1, §2, §3

SNB-19 = conditions: Homo sapiens, SNB-19 (CNS cancer), read-out: Cell Inhibition Percent
Procedure: as §1, §2, §3

SR = conditions: Homo sapiens, SR (Leukemia), read-out: Cell Inhibition Percent
Procedure: as §1, §2, §3

SW-620 = conditions: Homo sapiens, SW-620 (Colon Cancer), read-out: Cell Inhibition Percent
Procedure: as §1, §2, §3

TK-10 = conditions: Homo sapiens, TK-10 (Renal Cancer), read-out: Cell Inhibition Percent
Procedure: as §1, §2, §3

UACC-257 = conditions: Homo sapiens, UACC-257 (Melanoma), read-out: Cell Inhibition Percent
Procedure: as §1, §2, §3

UACC-62 = conditions: Homo sapiens, UACC-62 (Melanoma), read-out: Cell Inhibition Percent
Procedure: as §1, §2, §3

In the case of `O=C(NN=Cc1ccccc1)c1ccc2[nH]c(-c3ccc(Cl)cc3)nc2c1` [Compound 4a, N′-Benzylidene-2-(4-chlorophenyl)-1H-benzimidazole-5-carbohydrazide], the inhibition at 10 µM (786-0) is reported as 11.6%, the inhibition at 10 µM (ACHN) is reported as 3.26% and the inhibition at 10 µM (BT-549) is reported as 4.12%. The inhibition at 10 µM (CAKI-1) was 1.57%, the inhibition at 10 µM (CCRF-CEM) was 11.2% and the inhibition at 10 µM (DU-145) was 3.83%. For the same compound, the inhibition at 10 µM (HCC-2998) was 0%, the inhibition at 10 µM (HOP-62) was 0% and the inhibition at 10 µM (HOP-92) was 0%. It also gave an inhibition at 10 µM (HS 578T) of 7.92%, an inhibition at 10 µM (HT29) of 3.67% and an inhibition at 10 µM (K-562) of 7.37%. It also gave an inhibition at 10 µM (KM12) of 3.8%, an inhibition at 10 µM (MDA-MB-468) of 0% and an inhibition at 10 µM (MOLT-4) of 12.9%. The inhibition at 10 µM (NCI-H226) was 5.74%, the inhibition at 10 µM (NCI-H460) was 0% and the inhibition at 10 µM (NCI-H522) was 1%. For the same compound, the inhibition at 10 µM (NCI/ADR-RES) was 0%, the inhibition at 10 µM (OVCAR-4) was 0% and the inhibition at 10 µM (SF-268) was 0%. For the same compound, the inhibition at 10 µM (SF-539) was 9.57%, the inhibition at 10 µM (SK-MEL-28) was 0% and the inhibition at 10 µM (SK-OV-3) was 4.7%. The inhibition at 10 µM (SN12C) was 3.99%, the inhibition at 10 µM (SNB-19) was 0% and the inhibition at 10 µM (SR) was 18.1%. For the same compound, the inhibition at 10 µM (SW-620) was 0%, the inhibition at 10 µM (TK-10) was 0% and the inhibition at 10 µM (UACC-257) was 0%. For the same compound, the inhibition at 10 µM (UACC-62) was 0%.

In the case of `CN(C)c1ccc(C=NNC(=O)c2ccc3[nH]c(-c4ccc(Cl)cc4)nc3c2)cc1` [Compound 4b, N′-(4-(Dimethylamino)benzylidene)-2-(4-chlorophenyl)-1H-benzimidazole-5-carbohydrazide], the inhibition at 10 µM (786-0) is reported as 0%, the inhibition at 10 µM (ACHN) is reported as 1.36% and the inhibition at 10 µM (BT-549) is reported as 0%. The inhibition at 10 µM (CAKI-1) was 4.4%, the inhibition at 10 µM (CCRF-CEM) was 6.5% and the inhibition at 10 µM (DU-145) was 0%. It also gave an inhibition at 10 µM (HCC-2998) of 6.31%, an inhibition at 10 µM (HOP-62) of 2.51% and an inhibition at 10 µM (HOP-92) of 0%. The inhibition at 10 µM (HS 578T) was 6.32%, the inhibition at 10 µM (HT29) was 2.26% and the inhibition at 10 µM (K-562) was 5.96%. For the same compound, the inhibition at 10 µM (KM12) was 2.41%, the inhibition at 10 µM (MDA-MB-468) was 0% and the inhibition at 10 µM (MOLT-4) was 3.18%. For the same compound, the inhibition at 10 µM (NCI-H226) was 4.67%, the inhibition at 10 µM (NCI-H460) was 2.77% and the inhibition at 10 µM (NCI-H522) was 3.02%. The inhibition at 10 µM (NCI/ADR-RES) was 0.43%, the inhibition at 10 µM (OVCAR-4) was 0% and the inhibition at 10 µM (SF-268) was 0.73%. It also gave an inhibition at 10 µM (SF-539) of 5.22%, an inhibition at 10 µM (SK-MEL-28) of 0% and an inhibition at 10 µM (SK-OV-3) of 0%. For the same compound, the inhibition at 10 µM (SN12C) was 1.47%, the inhibition at 10 µM (SNB-19) was 0% and the inhibition at 10 µM (SR) was 2.54%. For the same compound, the inhibition at 10 µM (SW-620) was 0%, the inhibition at 10 µM (TK-10) was 0% and the inhibition at 10 µM (UACC-257) was 0%. It also gave an inhibition at 10 µM (UACC-62) of 1.06%.
